This note sets out measurements from patent publication US9593108B2, “Compounds and methods for antiviral treatment” (PTC Therapeutics, Inc., priority 2009, dated 2017).

Broadly, the pIC50 is the IC50 on a negative log10 scale, so that one unit is a factor of ten. As usually defined, the melting point is the temperature of the solid-liquid transition.

Data set [1] concerns HCV replicon RNA (GenBank Accession No. AJ242654). In words: HCV Replicon Assay (replicon RNA reduction and/or Fluc reporter signal). The conditions noted are these: Hepatitis C virus, 72 h, replicon-containing cells cultured with test compound for up to 3 days. In kind it is cell-based, Hepatitis C virus. In short, it runs like this:
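IC50 values mostly reflect the drop in replicon RNA, though Fluc reporter signal may also be used. Compound incubated with cells carrying the bicistronic replicon for as long as 3 days; interferon served as positive control.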
On the technique in general: In antiviral work, replicon cells carry a viral genome segment that copies itself.

pIC50: −log10 of the molar value.

The compound `Cc1nc2c(cc1C(F)(F)F)c(C#N)c(-c1ccc(S(=O)(=O)N[C@@H](C)C(F)(F)F)cn1)n2C1CCC1` [Cpd 405, 6-[3-cyano-1-cyclobutyl-6-methyl-5-(trifluoromethyl)-1H-pyrrolo[2,3-b]pyridin-2-yl]-N-[(2S)-1,1,1-trifluoropropan-2-yl]pyridine-3-sulfonamide] came in with a melting point of 201 to 203 °C. For the same compound, the pIC50 in data set [1] is greater than 6.30.
`CC(C)(NS(=O)(=O)c1ccc(-c2c(C(N)=O)c3cc(C(F)(F)F)cnc3n2C2CCCC2)nc1)C(F)(F)F` [Cpd 406, 1-cyclopentyl-5-(trifluoromethyl)-2-{5-[(1,1,1-trifluoro-2-methylpropan-2-yl)sulfamoyl]pyridin-2-yl}-1H-pyrrolo[2,3-b]pyridine-3-carboxamide] showed a melting point of 244 to 246 °C. Also, the pIC50 in data set [1] is greater than 6.30.
The corresponding values for `NC(=O)c1c(-c2ccc(S(=O)(=O)NC3(C(F)(F)F)CC3)cn2)n(C2CCCC2)c2ncc(C(F)(F)F)cc12` [Cpd 407, 1-cyclopentyl-5-(trifluoromethyl)-2-(5-{[1-(trifluoromethyl)cyclopropyl]sulfamoyl}pyridin-2-yl)-1H-pyrrolo[2,3-b]pyridine-3-carboxamide] are 262 to 264 °C and greater than 6.30.
The compound `NC(=O)c1c(-c2ccc(S(=O)(=O)NC3(C(F)(F)F)CC3)cc2)n(C2CCCC2)c2ncc(C(F)(F)F)cc12` [Cpd 408, 1-cyclopentyl-5-(trifluoromethyl)-2-(4-{[1-(trifluoromethyl)cyclopropyl]sulfamoyl}phenyl)-1H-pyrrolo[2,3-b]pyridine-3-carboxamide] had a melting point of 277 to 279 °C. The pIC50 in data set [1] is greater than 6.30.
`C[C@H](NS(=O)(=O)c1ccc(-c2c(C(N)=O)c3cc(C(F)(F)F)cnc3n2C2CCCC2)nc1)C(F)(F)F` [Cpd 409, 1-cyclopentyl-5-(trifluoromethyl)-2-(5-{[(2S)-1,1,1-trifluoropropan-2-yl]sulfamoyl}pyridin-2-yl)-1H-pyrrolo[2,3-b]pyridine-3-carboxamide] yielded a melting point of 261 to 263 °C. This compound had a pIC50 in data set [1] greater than 6.30.
On the same counts, the results for `CCc1cnc2c(c1)c(C#N)c(-c1ccc(S(=O)(=O)N[C@@H](C)C(F)(F)F)cn1)n2-c1cnccn1` [Cpd 411, 6-[3-cyano-5-ethyl-1-(pyrazin-2-yl)-1H-pyrrolo[2,3-b]pyridin-2-yl]-N-[(2S)-1,1,1-trifluoropropan-2-yl]pyridine-3-sulfonamide] are 195 to 200 °C and greater than 6.30.
Consider `CCc1cnc2c(c1)c(C#N)c(-c1ccc(S(=O)(=O)N[C@@H](C)C(F)(F)F)cn1)n2-c1cc(F)ccn1` [Cpd 412, 6-[3-cyano-5-ethyl-1-(4-fluoropyridin-2-yl)-1H-pyrrolo[2,3-b]pyridin-2-yl]-N-[(2S)-1,1,1-trifluoropropan-2-yl]pyridine-3-sulfonamide], for which the melting point was 201 to 205 °C. This compound also showed a pIC50 in data set [1] greater than 6.30.
Turning to `CCc1cnc2c(c1)c(C#N)c(-c1ccc(S(=O)(=O)N[C@@H](C)C(F)(F)F)cn1)n2-c1ccccc1` [Cpd 413, 6-(3-cyano-5-ethyl-1-phenyl-1H-pyrrolo[2,3-b]pyridin-2-yl)-N-[(2S)-1,1,1-trifluoropropan-2-yl]pyridine-3-sulfonamide], the melting point fell in the range of 135 to 140 °C. This compound had a pIC50 in data set [1] greater than 6.30.
The corresponding values for `CCc1cnc2c(c1)c(C#N)c(-c1ccc(S(=O)(=O)N[C@@H](C)C(F)(F)F)cn1)n2-c1ccccn1` [Cpd 414, 6-[3-cyano-5-ethyl-1-(pyridin-2-yl)-1H-pyrrolo[2,3-b]pyridin-2-yl]-N-[(2S)-1,1,1-trifluoropropan-2-yl]pyridine-3-sulfonamide] are 190 to 195 °C and greater than 6.30.
`C[C@H](NS(=O)(=O)c1ccc(-c2c(C#N)c3cc(C(F)(F)F)cnc3n2C2CCCCC2)nc1)C(F)(F)F` [Cpd 415, 6-[3-cyano-1-cyclohexyl-5-(trifluoromethyl)-1H-pyrrolo[2,3-b]pyridin-2-yl]-N-[(2S)-1,1,1-trifluoropropan-2-yl]pyridine-3-sulfonamide] showed a melting point of 204 to 206 °C. The compound further had a pIC50 in data set [1] greater than 6.30.
On the same counts, the results for `C[C@H](NS(=O)(=O)c1ccc(-c2c(C#N)c3cc(C(F)(F)F)cnc3n2C2CCCCC2)cc1)C(F)(F)F` [Cpd 416, 4-[3-cyano-1-cyclohexyl-5-(trifluoromethyl)-1H-pyrrolo[2,3-b]pyridin-2-yl]-N-[(2S)-1,1,1-trifluoropropan-2-yl]benzenesulfonamide] are 190 to 192 °C and greater than 6.30.
On the same counts, the results for `CC(C)(NS(=O)(=O)c1ccc(-c2c(C#N)c3cc(C(F)(F)F)cnc3n2C2CCCCC2)nc1)C(F)(F)F` [Cpd 417, 6-[3-cyano-1-cyclohexyl-5-(trifluoromethyl)-1H-pyrrolo[2,3-b]pyridin-2-yl]-N-(1,1,1-trifluoro-2-methylpropan-2-yl)pyridine-3-sulfonamide] are 177 to 179 °C and greater than 6.30.
In the case of `CC(C)(NS(=O)(=O)c1ccc(-c2c(C#N)c3cc(C(F)(F)F)cnc3n2C2CCCCC2)cc1)C(F)(F)F` [Cpd 418, 4-[3-cyano-1-cyclohexyl-5-(trifluoromethyl)-1H-pyrrolo[2,3-b]pyridin-2-yl]-N-(1,1,1-trifluoro-2-methylpropan-2-yl)benzenesulfonamide], the melting point was 203 to 205 °C. The pIC50 in data set [1] was greater than 6.30.
As for `N#Cc1c(-c2ccc(S(=O)(=O)NC3(C(F)(F)F)CC3)cn2)n(C2CCCCC2)c2ncc(C(F)(F)F)cc12` [Cpd 419, 6-[3-cyano-1-cyclohexyl-5-(trifluoromethyl)-1H-pyrrolo[2,3-b]pyridin-2-yl]-N-[1-(trifluoromethyl)cyclopropyl]pyridine-3-sulfonamide], the melting point was in the range of 192 to 193 °C. Also, the pIC50 in data set [1] was greater than 6.30.
The corresponding values for `N#Cc1c(-c2ccc(S(=O)(=O)NC3(C(F)(F)F)CC3)cc2)n(C2CCCCC2)c2ncc(C(F)(F)F)cc12` [Cpd 420, 4-[3-cyano-1-cyclohexyl-5-(trifluoromethyl)-1H-pyrrolo[2,3-b]pyridin-2-yl]-N-[1-(trifluoromethyl)cyclopropyl]benzenesulfonamide] are 195 to 197 °C and greater than 6.30.
Compound `CC1(NS(=O)(=O)c2ccc(-c3c(C#N)c4cc(C(F)(F)F)cnc4n3C3CCCCC3)cc2)CC1` [Cpd 421, 4-[3-cyano-1-cyclohexyl-5-(trifluoromethyl)-1H-pyrrolo[2,3-b]pyridin-2-yl]-N-(1-methylcyclopropyl)benzenesulfonamide] showed a melting point of 173 to 175 °C. In data set [1], this compound gave a pIC50 greater than 6.30.
The compound `CC(C)(C)NS(=O)(=O)c1ccc(-c2c(C#N)c3cc(C(F)(F)F)cnc3n2C2CCCCC2)cc1` [Cpd 422, N-tert-butyl-4-[3-cyano-1-cyclohexyl-5-(trifluoromethyl)-1H-pyrrolo[2,3-b]pyridin-2-yl]benzenesulfonamide] gave a melting point of 176 to 178 °C. In addition, the pIC50 in data set [1] was greater than 6.30.
For `C[C@@H](NS(=O)(=O)c1ccc(-c2c(C#N)c3cc(C(F)(F)F)cnc3n2C2CCCCC2)cc1)C(F)(F)F` [Cpd 423, 4-[3-cyano-1-cyclohexyl-5-(trifluoromethyl)-1H-pyrrolo[2,3-b]pyridin-2-yl]-N-[(2R)-1,1,1-trifluoropropan-2-yl]benzenesulfonamide], the melting point lay within 185 to 187 °C. Also, in data set [1], the pIC50 is greater than 6.30.
